Assay results as given in patent US9896512B2, “Antitumor peptide derived from a complementarity determining region of a humanized monoclonal antibody to NAP12B transporter” (Recepta Biopharma S.A., priority 2010, dated 2018).
Read-outs that look alike come from different tables or passages of the source. Non-standard residues stand in square brackets, D forms with d. Residues, ends and D or L forms follow the SMILES beside them. No end group written: not given here.

Key:
[1] = system: B16F10-Nex2 melanoma cells; test: Cell migration, wound healing assay; assay type: cell-based, murine; conditions: peptide 500 μM, 24 hours after wounding
Procedure: (§1) For the migration studies, 5×10^5 or 10^6 cells were distributed on 6-well plates and let them to adhere for 2 hours at 37° C./5% CO2. The culture medium was changed and the peptide was added at 500 μM overnight. The cell monolayer was “wounded” with a P1000 tip and incubated for 24 hours. Images of untreated cells (control) and peptide treated cells were captured with a JENOPTIK camera. Cell numbers (nuclei) were determined using the Pixcavator software version 5.0.
Viable B16F10-Nex2 cells (5×105)/well were distributed on a 6-well culture plate and incubated overnight at 37° C. in a humidified chamber with 5% CO2. A P1000 tip was used for wounding the cell monolayer and the image was immediately captured (0 hour) using a camera (Jenoptik) with the software Progres 2.8. After 24 hours a new image of the same field was obtained and recorded (24 hours).
Viable B16F10-Nex2 cells (3×10^5)/well were distributed in a 12-well culture plate and incubated for 4 hours at 37° C. in a humidified chamber with 5% CO2. Fresh medium containing RB10 (SEQ ID NO: 9) at different concentrations was added to the wells and incubated again for 4 hours. The monolayer wounding was performed as described above in Example 12, and images obtained accordingly. After 24 hours a new image in the same field was obtained and recorded (24 hours). […] Magnification ×100.

[2] = system: human cervix cancer SiHa cells; test: Cell migration, wound healing assay; assay type: cell-based; conditions: peptide 500 μM, 24 hours
Procedure: as §1

[3] = system: human cervix cancer HeLa cells; test: Cell migration, wound healing assay; assay type: cell-based; conditions: peptide 500 μM, 24 hours
Procedure: as §1

[4] = system: human glioblastoma U87 cells; test: Cell migration, wound healing assay; assay type: cell-based; conditions: peptide 500 μM, 24 hours
Procedure: as §1

[5] = Peptide degradation by human plasma (HPLC / mass spectrum); assay type: in vitro ADME; conditions: human plasma, 37° C.
Procedure: Peptides have variable half lives in the plasma due to the proteolytic activity and the renal filtration, which are relevant aspects in the pharmacokinetics of drug candidates.
To analyze the peptide in HPLC and Mass Spectrum, an aliquot of 200 μL was transferred to a new Eppendorf tube and proteins were precipitated with 20 μL trifluoroacetic acid for 5 minutes at 4° C. After centrifugation for 10 minutes at 14,000 rpm, the supernatant was analyzed in an LC/ESI-MS (Waters).
Regarding assays for determining time-lapse plasma degradation of RB9 peptide, peptide degradation by human plasma was monitored in HPLC and Mass spectra every 30 minutes as described above (FIG. 12). About 50% RB9 was cleaved after 2 hours of incubation at 37° C.

[6] = system: B16F10-Nex2 melanoma cells; test: In vivo protection against lung colonization (metastatic melanoma model); parameters: species or system C57B1/6 mice; conditions: 250 μg i.p. on days 1, 3, 5, 7, 9, 11; lungs after 22 days
Procedure: (§2) Details of the in vitro tumor cell growth, cytotoxicity tests, determination of viable cells and in vivo protection experiments with B16F10 cells in a mouse metastatic model are described in Polonelli et al. (PLoS One. 3(6):e2371, 2008) and Dobroff et al. (Translat. Onc., 3: 204-217, 2010).
Peptides RB9 and RB10 along with the apoptotic peptide A4H3, a true microantibody of cytotoxic anti-melanoma mAb (A4) (Dobroff et al., Translat. Onc., 3: 204-217, 2010), were tested for their protective effects against lung colonization by B16F10-Nex2 melanoma cells (2×105) injected intravenously in C57B1/6 mice (6 animals/group). Peptides were intraperitoneally administered (250 μg i.p.) on days 1, 3, 5, 7, 9, 11 after tumor cell challenge. Lungs of peptide-treated animals are shown in FIG. 5 after 22 days of tumor challenge. As noticed, peptide treatment was interrupted 10 days before animal sacrifice.
In vivo protection by peptides RB9 and RB10 (and A4H3 control) against lung colonization by B16F10-Nex2 melanoma cells (2×105) injected intravenously in C57B1/6 mice (6 animals/group) is shown in FIG. 6. The other 5 CDRs of RebMab200 (SEQ ID NOs: 7, 10, 11, 12, 13) were unprotective in vivo. Peptides were administered in the same way as described above, and the number of lung nodules was determined.

[7] = system: tumor cells; test: Antitumor activity of RebMab 200 CDR peptides; assay type: cell-based
Text: as §2
Amidated RebMab 200 CDR H2 (SEQ ID NO: 7) shares up to sixteen (16) identical amino acids with similar H2 fragments from several murine antibodies of various specificities.

[8] = system: tumor cells; test: Cell adherence assay (detachment with trypsin/EDTA); assay type: cell-based
Procedure: At a lower dose, cells would be detached with trypsin/EDTA at rates inversely proportional to the peptide concentration. Conceivably, peptides RB9 and RB10 affected the cytoskeleton dynamics of cells, thus signaling increased cell adhesion.
B16F10-Nex2.1 cells (5×10^3) and U87-MG cells (1×10^4) were cultivated in 96-well plates and incubated with different concentrations of RB9 (SEQ ID NO: 8) and RB10 (SEQ ID NO: 9) from 0.01 to 1 mM (i.e., 0.01, 0.05, 0.1, 0.25, 0.7, 0.8 and 1 mM of RB9 and RB10 for B16F10-Nex 2.1 cells; and 0.25, 0.5, 0.75 and 1 mM of RB9 and RB10 for U87-MG cells). After 18 hours incubation, viable cells detached with trypsin/EDTA were counted using Trypan blue exclusion staining. All assays were performed in triplicate in two independent experiments.
SKBR3 cells (1×10^4) were cultivated in 96-well plates and incubated with RB9 (SEQ ID NO: 8) and RB10 (SEQ ID NO: 9). After 18 hours incubation, viable cells detached with trypsin/EDTA were counted using Trypan blue exclusion staining. Assays were performed in triplicate in two independent experiments. The A2058 human melanoma cells (1×10^4) were incubated for 4 hours at 37° C. in a humidified chamber with 5% CO2. Fresh media containing different peptide concentrations of RB9 and RB10 ranging from 0 to 1 mM (i.e., 0, 0.25, 0.5 and 1 mM) was added to the wells and incubated for 24 hours. The media was then aspirated, cells were detached with 30 μl/well of trypsin-EDTA for five minutes at 37° C. and viable cells were counted in a Neubauer chamber using Trypan blue. As shown in FIGS. 2A-2D, 50% of cells were trypsin-EDTA resistant at 630 and 610 μM RB9 and RB10, respectively.

[9] = system: melanoma B16F10-Nex2 cells; test: Alanine scanning series cell adhesion assay (MTT after trypsin-EDTA); assay type: cell-based, murine; conditions: 1 mM peptide, 24 hours
Procedure: The peptide RB10 (SEQ ID NO: 9) was engineered to replace each amino acid by alanine using Ala-scan methodology, and thus help evaluate the role of each amino acid on biological effect, specifically on the hyper-adherence observed with 1 mM peptide.
For this purpose, viable melanoma B16F10-Nex2 cells (1×10^4)/well were distributed on a 96-well culture plate and incubated for 4 hours. Fresh media containing 1 mM of the alanine-scanning series for RB10 was added and incubated for 24 hours. Treated cells were detached with 30 μl/well of trypsin-EDTA for five minutes at 37° C. and gently washed with PBS. Cells were incubated for 4 hours with 0.5 mg/mL of MTT [3-(4,5-Dimethylthiazol-2-yl)-2,5-diphenyltetrazolium bromide] in fresh media and the formazan crystals were solubilized adding 1 volume of a 10% SDS solution overnight. Intensity was measured using a plate reader at 570 nm. […] The 100% value for each peptide represented the treated cells that had not been trypsinized.

Molecule: C[C@H](NC(=O)[C@H](CCCNC(=N)N)NC(=O)[C@H](C)NC(=O)[C@@H](NC(=O)[C@H](CCC(=O)O)NC(=O)CNC(=O)[C@H](CCCNC(=N)N)NC(=O)[C@@H](C)NC(=O)[C@@H](N)CS)[C@@H](C)O)C(=O)N[C@H](C(=O)N[C@@H](Cc1ccccc1)C(=O)N[C@@H](C)C(=O)N[C@@H](Cc1ccc(O)cc1)C(=O)N[C@@H](Cc1c[nH]c2ccccc12)C(=O)NCC(=O)N[C@@H](CCC(N)=O)C(=O)NCC(N)=O)[C@@H](C)O [RB10 M3, C(dA)RGETARATFAYWGQG-NH2] (H-C[dA]RGETARATFAYWGQG-NH2; N-terminus assumed)
- inhibition of cell migration (words) [1]: complete inhibition
- inhibition of cell migration (words) ([1]; listed as RB10M3): Total inhibition
- inhibition of cell migration [2]: almost complete inhibition
- inhibition of cell migration ([2]; listed as RB10M3): complete or almost complete inhibition
- inhibition of cell migration [3]: almost complete inhibition
- inhibition of cell migration ([3]; listed as RB10M3): complete or almost complete inhibition
- inhibition of cell migration [4]: partial inhibition
- inhibition of cell migration ([4]; listed as RB10M3): partial migration inhibition

Molecule: AIYPGNGDTSYKQKFRG-NH2 [RB8, AIYPGNGDTSYKQKFRG-NH2]
- half-life [5]: < 1 h
- protection against lung colonization (lung nodules) [6]: unprotective
- antitumor activity ([7]; listed as RBB): no antitumor activity
- antitumor activity ([7]; listed as SEQ ID NO: 7): no antitumor effect

Molecule: CARGETARATFAYWGQG (Sequence of CDR H3 from RebMab 200 (huMX35), obtainable by a known method) [RB10a]
- adherence at peptide concentration of 1 mM (not suspended by trypsin/EDTA) ([8]; 1 mM peptide): hyper-adherence
- adherence of tumor cells to the substrate ([8]; 96-well plates, RPMI 10% FCS, seen in B16F10-Nex2.1, U87MG, A5028 melanoma, SKBR3, SiHa, HCT cells): dose dependent increase of adherence
- trypsin/EDTA-resistant cell adherence [9]: high trypsin/EDTA-resistant cell adherence
- antitumor activity [7]: antitumor effects
